# Assay results: US9669003B2, “Use of flavone and flavanone derivatives in preparation of sedative and hypnotic drugs” (priority 2012, dated 2017)
# Marks after values point to notes of the source that are not given here.
# Test system: Kunming mice
# Assay: Influence on autonomic activity of normal mice (ZIL-2 mice autonomic activity meter, counts within 10 min)
# Type: in vivo
# Settings: intragastric, 25 mg/kg, 1 h after administration, x ± s, n = 10
# Text: (§1) 1.1 Animals for experiments: Kunming mice, weighting 18.9˜22.2 g for females, and 20.2˜23.0 g for males, licensed under SCXK-(Ji) 2007-0003, and provided by The experimental animal centre, Jilin University.
# (§2) 1.2 Chemicals for experiments: The flavone derivatives provided in Examples 1-41 and the flavanone derivatives provided in Examples 42-71 are all formulated with 0.5% sodium carboxymethyl cellulose as solutions with required concentrations.
# (§3) 1.3 Grouping of animals: 6420 animals are employed in the entire experiments and 2140 of the animals are randomly divided into 214 groups by gender, and the […] include: control group, low dosage group for each experimental drugs (25 mg/kg), medium dosage group for each experimental drugs (50 mg/kg), and high dosage group for each experimental drugs (100 mg/kg). Each group has 10 animals and either female or male constitutes half of the group. The groups are used in behavior observation and voluntary action observation. The other 4280 animals are randomly divided into 214 groups by gender respectively (the grouping way is the same with that described above). Each group has 20 animals and either female or male constitutes half of the group. In each group, 10 animals are used in hypnosis experimentations with pentobarbital sodium doses below the threshold, and the other 10 animals are used hypnosis experimentations with pentobarbital sodium doses at the threshold.
# 1.4 Experimental instrument and agents: ZIL-2 mice autonomic activity meter, production of Institute of Materia Medica of Chinese Academy of Medical Sciences; pentobarbital sodium, Lot: 100808, 25 g/bottle, Beijing Chemical Reagent Company equipment imported from Germany.
# 1.5.2 Influence on Autonomic Activity of Normal Mice
# After observing the general behavior, in 1 h, 2 h and 24 h after drug administration, respectively, ZIL-2 mice autonomic activity meter is put respectively. Number of autonomic activities of each group of mice is measured within 10 min. Results among groups are compared.
# (§4) Number of autonomic activities is detected by leneve Test for homogeneity of variance. If the homogeneity of variance is good (P>0.05), statistical analysis is performed with ANOVA. If ANOVA have statistical significance (P≦0.05), Dunnett's test for multiple comparisons analysis is performed. Number of animals of sleeping mice is applied of ANOVA. Incidence rate of animal asleep is applied of χ2 test. Sleep latency and sleep duration are recorded in min, averaged by group, represented by standard deviation, and undergo statistical analysis using ANOVA.
row,Compound,Times of activities in 1 h after drug administration/10 min
1,C#Cc1ccc(-c2cc(=O)c3cc(F)c(C(=O)O)c(O)c3o2)cc1CCCCCCCCCCCCCCCCCCCC [Example 33],304.9 ± 39.2 /10 min
2,N#CSc1ccc(-c2cc(=O)c3cc(N)c(F)c(C#N)c3o2)cc1O [Example 28],289.8 ± 50.1 /10 min

# Same assay, conditions: intragastric, 25 mg/kg, 2 h after administration, x ± s, n = 10
row,Compound,Times of activities in 2 h after drug administration/10 min
1,C#Cc1ccc(-c2cc(=O)c3cc(F)c(C(=O)O)c(O)c3o2)cc1CCCCCCCCCCCCCCCCCCCC [Example 33],298.2 ± 35.6 /10 min
2,N#CSc1ccc(-c2cc(=O)c3cc(N)c(F)c(C#N)c3o2)cc1O [Example 28],278.3 ± 42.9 /10 min

# Same assay, conditions: intragastric, 25 mg/kg, 24 h after administration, x ± s, n = 10
row,Compound,Times of activities in 24 h after drug administration/10 min
1,C#Cc1ccc(-c2cc(=O)c3cc(F)c(C(=O)O)c(O)c3o2)cc1CCCCCCCCCCCCCCCCCCCC [Example 33],273.2 ± 80.8 /10 min
2,N#CSc1ccc(-c2cc(=O)c3cc(N)c(F)c(C#N)c3o2)cc1O [Example 28],315.2 ± 76.3 /10 min

# Same assay, conditions: intragastric, 50 mg/kg, 1 h after administration, x ± s, n = 10
row,Compound,Times of activities in 1 h after drug administration/10 min
1,C#Cc1ccc(-c2cc(=O)c3cc(F)c(C(=O)O)c(O)c3o2)cc1CCCCCCCCCCCCCCCCCCCC [Example 33],266.4 ± 51.6 /10 min
2,N#CSc1ccc(-c2cc(=O)c3cc(N)c(F)c(C#N)c3o2)cc1O [Example 28],248.9 ± 61.1 /10 min

# Same assay, conditions: intragastric, 50 mg/kg, 2 h after administration, x ± s, n = 10
row,Compound,Times of activities in 2 h after drug administration/10 min
1,C#Cc1ccc(-c2cc(=O)c3cc(F)c(C(=O)O)c(O)c3o2)cc1CCCCCCCCCCCCCCCCCCCC [Example 33],247.1 ± 58.3 /10 min
2,N#CSc1ccc(-c2cc(=O)c3cc(N)c(F)c(C#N)c3o2)cc1O [Example 28],260.8 ± 58.1 /10 min

# Same assay, conditions: intragastric, 50 mg/kg, 24 h after administration, x ± s, n = 10
row,Compound,Times of activities in 24 h after drug administration/10 min
1,C#Cc1ccc(-c2cc(=O)c3cc(F)c(C(=O)O)c(O)c3o2)cc1CCCCCCCCCCCCCCCCCCCC [Example 33],284.7 ± 78.7 /10 min
2,N#CSc1ccc(-c2cc(=O)c3cc(N)c(F)c(C#N)c3o2)cc1O [Example 28],327.5 ± 80.7 /10 min

# Same assay, conditions: intragastric, 100 mg/kg, 1 h after administration, x ± s, n = 10
row,Compound,Times of activities in 1 h after drug administration/10 min
1,C#Cc1ccc(-c2cc(=O)c3cc(F)c(C(=O)O)c(O)c3o2)cc1CCCCCCCCCCCCCCCCCCCC [Example 33],179.0 ± 49.1 /10 min
2,N#CSc1ccc(-c2cc(=O)c3cc(N)c(F)c(C#N)c3o2)cc1O [Example 28],144.2 ± 32.5 /10 min

# Same assay, conditions: intragastric, 100 mg/kg, 2 h after administration, x ± s, n = 10
row,Compound,Times of activities in 2 h after drug administration/10 min
1,C#Cc1ccc(-c2cc(=O)c3cc(F)c(C(=O)O)c(O)c3o2)cc1CCCCCCCCCCCCCCCCCCCC [Example 33],165.8 ± 52.3 /10 min
2,N#CSc1ccc(-c2cc(=O)c3cc(N)c(F)c(C#N)c3o2)cc1O [Example 28],237.5 ± 44.3 /10 min

# Same assay, conditions: intragastric, 100 mg/kg, 24 h after administration, x ± s, n = 10
row,Compound,Times of activities in 24 h after drug administration/10 min
1,C#Cc1ccc(-c2cc(=O)c3cc(F)c(C(=O)O)c(O)c3o2)cc1CCCCCCCCCCCCCCCCCCCC [Example 33],318.4 ± 80.5 /10 min
2,N#CSc1ccc(-c2cc(=O)c3cc(N)c(F)c(C#N)c3o2)cc1O [Example 28],308.7 ± 84.7 /10 min

# Test system: Kunming mice
# Assay: Influence on hypnosis effect with pentobarbital sodium doses at the threshold (50 mg/kg i.p.)
# Type: in vivo
# Settings: 25 mg/kg intragastric single dose, pentobarbital sodium 50 mg/kg i.p. 60 min later, x ± s, n = 10
# Text: as §1, §2, §3
# 1.5.4 Influence on Hypnosis Effect with Mice Pentobarbital Sodium Doses at the Threshold
# (§5) The drug is intragastric administered in mice for single time, 2 animals of each group are given drug per round with the dosing interval of 40 min (±5 min). According to the administration round, in 60 min (±5 min) of each round after the drug administration, the animals were intraperitoneally injected 0.3% sodium pentobarbital 50 mg/kg, respectively. Time to fall asleep (sleep latency) and sleep duration of the animals were recorded within under sleep determination standard of loss of righting reflex more than 1 min.
# as §4
Compound,duration of sleep [min],time to sleep [min]
C#Cc1ccc(-c2cc(=O)c3cc(F)c(C(=O)O)c(O)c3o2)cc1CCCCCCCCCCCCCCCCCCCC [Example 33],30.43 ± 22.06,4.81 ± 2.37
N#CSc1ccc(-c2cc(=O)c3cc(N)c(F)c(C#N)c3o2)cc1O [Example 28],27.68 ± 23.55,5.48 ± 2.25

# Same assay, conditions: 50 mg/kg intragastric single dose, pentobarbital sodium 50 mg/kg i.p. 60 min later, x ± s, n = 10
Compound,duration of sleep [min],time to sleep [min]
C#Cc1ccc(-c2cc(=O)c3cc(F)c(C(=O)O)c(O)c3o2)cc1CCCCCCCCCCCCCCCCCCCC [Example 33],36.53 ± 13.21,4.62 ± 1.75
N#CSc1ccc(-c2cc(=O)c3cc(N)c(F)c(C#N)c3o2)cc1O [Example 28],46.89 ± 23.61,4.31 ± 1.19

# Same assay, conditions: 100 mg/kg intragastric single dose, pentobarbital sodium 50 mg/kg i.p. 60 min later, x ± s, n = 10
Compound,duration of sleep [min],time to sleep [min]
C#Cc1ccc(-c2cc(=O)c3cc(F)c(C(=O)O)c(O)c3o2)cc1CCCCCCCCCCCCCCCCCCCC [Example 33],51.56 ± 20.75,3.82 ± 1.12
N#CSc1ccc(-c2cc(=O)c3cc(N)c(F)c(C#N)c3o2)cc1O [Example 28],55.49 ± 21.02,3.93 ± 2.45

# Test system: Kunming mice
# Assay: Influence on hypnosis effect with pentobarbital sodium doses below the threshold (25 mg/kg i.p.)
# Type: in vivo
# Settings: test drug 25 mg/kg intragastric single dose, pentobarbital sodium 25 mg/kg i.p. 60 min later, sleep observed in 30 min, n = 10
# Text: as §1, §2, §3
# 1.5.3 Influence on Hypnosis Effect with Mice Pentobarbital Sodium Doses Below the Threshold
# as §5, with “25” for “50”, “Sleep condition” for “Time to fall asleep (sleep latency) and sleep duration”, “observed” for “recorded”, “30 min (under” for “under”, “min). After animals undergo loss of righting reflex, number of the animals is recorded, to calculate sleep percentage.” for “min.”
# as §4
Compound,Number of sleeping animals,rate of sleeping (%)
C#Cc1ccc(-c2cc(=O)c3cc(F)c(C(=O)O)c(O)c3o2)cc1CCCCCCCCCCCCCCCCCCCC [Example 33],5,50** %
N#CSc1ccc(-c2cc(=O)c3cc(N)c(F)c(C#N)c3o2)cc1O [Example 28],3,30%

# Same assay, conditions: test drug 50 mg/kg intragastric single dose, pentobarbital sodium 25 mg/kg i.p. 60 min later, sleep observed in 30 min, n = 10
Compound,Number of sleeping animals,rate of sleeping (%)
C#Cc1ccc(-c2cc(=O)c3cc(F)c(C(=O)O)c(O)c3o2)cc1CCCCCCCCCCCCCCCCCCCC [Example 33],6,60** %
N#CSc1ccc(-c2cc(=O)c3cc(N)c(F)c(C#N)c3o2)cc1O [Example 28],5,50** %

# Same assay, conditions: test drug 100 mg/kg intragastric single dose, pentobarbital sodium 25 mg/kg i.p. 60 min later, sleep observed in 30 min, n = 10
Compound,Number of sleeping animals,rate of sleeping (%)
C#Cc1ccc(-c2cc(=O)c3cc(F)c(C(=O)O)c(O)c3o2)cc1CCCCCCCCCCCCCCCCCCCC [Example 33],7,70*** %
N#CSc1ccc(-c2cc(=O)c3cc(N)c(F)c(C#N)c3o2)cc1O [Example 28],6,60** %
